Measurements as given in US4401656A, “N-Substituted dimeric cyclopeptide derivatives” (Ayerst, McKenna & Harrison, Ltd., priority 1980, dated 1983).

Columns and labels:
[1] = test system: Serratia marcescens; assay: serial broth dilution, growth inhibition; assay type: cell-based; settings: nutrient broth, incubated at 37° C. for 2 days
Experimental: (§1) Grove and W. A. Randall in "Assay Methods of Antibiotics", Med. Encycl. Inc., New York, 1955. […] 289.
(§2) For example, by employing a test like the serial broth dilution, see Grove and Randall, cited above, in which dilutions of the compounds of this invention in nutrient broth are inoculated with the microorganisms or fungi, described above, incubated at 37° C. for 2 days, respectively, and examined for the presence of growth, it may be shown that the preferred compounds N'N'-dicyclohexyl-α,α'-diisopropyl-2,5,8,11,14,17-hexaoxo-1,4,7,10,13,16-hexaazacyclooctadecane-1,10-diacetamide, isomer L, (Example 1), N'N'-dicyclohexyl-α,α'-diisopropyl-2,5,8,11,14,17-hexaoxo-1,4,7,10,13,16-hexaazacyclooctadecane-1,10-diacetamide, isomer M, (Example 1), and α,α'-diphenyl-N'N'-dicyclohexyl-2,5,8,11,14,17-hexaoxo-1,4,7,10,13,16-hexaazacyclooctadecane-1,10-diacetamide, isomer L, (Example 1) are able to inhibit growth totally in this system of Klebsiella pneumoniae and Serratia marcescens at a concentration of 100 mcg/ml.

[2] = test system: Klebsiella pneumoniae; assay: serial broth dilution, growth inhibition; assay type: cell-based; settings: nutrient broth, incubated at 37° C. for 2 days
Experimental: as §1, §2

## CC(C)C(C(=O)NC1CCCCC1)N1CC(=O)NCC(=O)NCC(=O)N(C(C(=O)NC2CCCCC2)C(C)C)CC(=O)NCC(=O)NCC1=O (stereo not drawn) [N,N'-Dicyclohexyl-α,α'-diisopropyl-2,5,8,11,14,17-hexaoxo-1,4,7,10,13,16-hexaazacyclooctadecane-1,10-diacetamide]
[1]
  concentration able to inhibit growth totally: 100 µg/mL
[2]
  concentration able to inhibit growth totally: 100 µg/mL

## O=C1CNC(=O)CN(C(C(=O)NC2CCCCC2)c2ccccc2)C(=O)CNC(=O)CNC(=O)CN(C(C(=O)NC2CCCCC2)c2ccccc2)C(=O)CN1 (stereo not drawn) [α,α'-diphenyl-N,N'-dicyclohexyl-2,5,8,11,14,17-hexaoxo-1,4,7,10,13,16-hexaazacyclooctadecane-1,10-diacetamide]
[1]
  concentration able to inhibit growth totally: 100 µg/mL
[2]
  concentration able to inhibit growth totally: 100 µg/mL
